The text below walks through data of patent publication US20250017914A1, “6-AZA-QUINOLINE DERIVATIVES AND RELATED USES” (Black Diamond Therapeutics, Inc., priority 2021, published 2025).

One may read the GI50 as the concentration that inhibits growth by half. Low values mean greater sensitivity of the cells, high ones lower sensitivity of the cells.

In the first assay the target is T1, BaF3 BRAF-KIAA1549 fusion cells (Homo sapiens, UniProt P15056).
T1 construct: The BRAF-KIAA1549 fusion mutant was subcloned into pMXs-IRES-Blasticidin (RTV-016, Cell Biolabs, San Diego, CA); No tag given; Q9HCM3 (UPF0606 protein KIAA1549)
T1 sequence (P15056 whole entry, change not shown, the tested form may be a part): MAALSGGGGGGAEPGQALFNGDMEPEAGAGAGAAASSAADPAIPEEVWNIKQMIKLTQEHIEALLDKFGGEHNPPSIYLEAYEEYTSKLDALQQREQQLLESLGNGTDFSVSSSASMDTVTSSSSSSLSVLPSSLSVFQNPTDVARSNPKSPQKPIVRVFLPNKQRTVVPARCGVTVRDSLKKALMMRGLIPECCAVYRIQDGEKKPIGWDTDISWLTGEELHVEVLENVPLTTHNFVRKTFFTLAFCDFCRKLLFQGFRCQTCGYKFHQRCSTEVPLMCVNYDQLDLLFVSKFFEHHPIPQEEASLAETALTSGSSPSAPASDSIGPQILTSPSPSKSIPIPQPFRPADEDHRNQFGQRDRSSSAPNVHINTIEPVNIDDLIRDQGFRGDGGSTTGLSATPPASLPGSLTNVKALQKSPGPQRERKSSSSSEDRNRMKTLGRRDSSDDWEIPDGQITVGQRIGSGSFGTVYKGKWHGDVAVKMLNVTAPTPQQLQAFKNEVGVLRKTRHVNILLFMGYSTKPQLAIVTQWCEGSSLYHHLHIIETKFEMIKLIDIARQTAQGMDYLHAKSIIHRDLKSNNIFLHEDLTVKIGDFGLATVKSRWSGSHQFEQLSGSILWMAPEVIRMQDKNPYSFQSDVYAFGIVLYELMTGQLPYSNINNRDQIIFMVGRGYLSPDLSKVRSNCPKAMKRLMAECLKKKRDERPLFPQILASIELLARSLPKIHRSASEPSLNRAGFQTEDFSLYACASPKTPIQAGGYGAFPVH
Description: BaF3 BRAF-KIAA1549 fusion cell proliferation assay (CellTiterGlo, 96 hours). Conditions: Table A1. The format is cell-based. The method, boiled down:
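BaF3 cells retrovirally transduced with BRAF-KIAA1549 fusion and blasticidin-selected were plated at 7×10^4 c/well in RPMI, 10% heat-inactivated FBS, 1% L-glutamine, and exposed to compound for 96 hours. Growth was read as ATP content by CellTiterGlo luminescence. IC50 was fitted by Levenberg-Marquardt, normalised to DMSO-treated cells.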
In turn, `CNc1cc2ncc(-c3cc(NC(=O)c4cc(C(C)(C)C#N)ccn4)c(Cl)cc3C)cc2cn1` [Compound 50, N-(2-Chloro-4-methyl-5-(7-(methylamino)-1,6-naphthyridin-3-yl)phenyl)-4-(2-cyanopropan-2-yl)picolinamide] came in with a GI50 of 100 to 500 nM.

`CNc1cc2ncc(-c3cc(NC(=O)c4ccnc(C(C)C)c4)cnc3C)cc2cn1` [Compound 57, 2-Isopropyl-N-(6-methyl-5-(7-(methylamino)-1,6-naphthyridin-3-yl)pyridin-3-yl)isonicotinamide]: the GI50 was less than 20 nM.

As for `CNc1cc2ncc(-c3cc(NC(=O)c4cc(C(C)(C)C#N)ccn4)cc(F)c3C)cc2cn1` [Compound 38, 4-(2-Cyanopropan-2-yl)-N-(3-fluoro-4-methyl-5-(7-(methylamino)-1,6-naphthyridin-3-yl)phenyl)picolinamide], the GI50 lay in the range of 20 to 100 nM.

With `CNc1cc2ncc(-c3cc(NC(=O)c4nccc(C(F)(F)F)c4Cl)cnc3C)cc2cn1` [Compound 26, 3-Chloro-N-(6-methyl-5-(7-(methylamino)-1,6-naphthyridin-3-yl)pyridin-3-yl)-4-(trifluoromethyl)picolinamide], the GI50 was in the range of 20 to 100 nM.

In the case of `CNc1cc2ncc(-c3cc(NC(=O)c4ccnc(C(F)(F)F)c4)ccc3C)cc2cn1` [Compound 2, N-(4-methyl-3-(7-(methylamino)-1,6-naphthyridin-3-yl)phenyl)-2-(trifluoromethyl)isonicotinamide], the GI50 was 20 to 100 nM.

In turn, `CNc1cc2ncc(-c3cc(NC(=O)c4cc(C(C)(C)C#N)ccn4)cc(F)c3F)cc2cn1` [Compound 39, 4-(2-Cyanopropan-2-yl)-N-(3,4-difluoro-5-(7-(methylamino)-1,6-naphthyridin-3-yl)phenyl)picolinamide] had a GI50 of 20 to 100 nM.

Compound `CNc1cc2ncc(-c3cc(NC(=O)c4cc(C(C)(C)C#N)ccn4)ccc3F)cc2cn1` [Compound 40, 4-(2-cyanopropan-2-yl)-N-(4-fluoro-3-(7-(methylamino)-1,6-naphthyridin-3-yl)phenyl)picolinamide] displayed a GI50 of 20 to 100 nM.

In the case of `CNc1cc2ncc(-c3cc(NC(=O)c4cc(C(F)(F)F)ccn4)ccc3C)cc2cn1` [Compound 1, N-(4-methyl-3-(7-(methylamino)-1,6-naphthyridin-3-yl)phenyl)-4-(trifluoromethyl)picolinamide], the GI50 was less than 20 nM.

The compound `Cc1ccc(NC(=O)c2ccnc(C3(F)CC3)c2)cc1-c1cnc2cc(N)ncc2c1` [Compound 154, N-(3-(7-amino-1,6-naphthyridin-3-yl)-4-methylphenyl)-2-(1-fluorocyclopropyl)isonicotinamide] had a GI50 of less than 20 nM.

In the case of `CNc1cc2ncc(-c3cc(NC(=O)c4cc(C(C)(C)C#N)ccn4)c(F)cc3C)cc2cn1` [Compound 42, 4-(2-Cyanopropan-2-yl)-N-(2-fluoro-4-methyl-5-(7-(methylamino)-1,6-naphthyridin-3-yl)phenyl)picolinamide], the GI50 is 20 to 100 nM.

For `CNc1cc2ncc(-c3cc(NC(=O)c4ccnc(C(F)F)c4)cnc3C)cc2cn1` [Compound 28, 2-(Difluoromethyl)-N-(6-methyl-5-(7-(methylamino)-1,6-naphthyridin-3-yl)pyridin-3-yl)isonicotinamide], the GI50 was in the range of 100 to 500 nM.

Regarding `CNc1cc2ncc(-c3cc(NC(=O)c4cc(C(C)(C)C#N)ccn4)c(F)cc3Cl)cc2cn1` [Compound 37, N-(4-Chloro-2-fluoro-5-(7-(methylamino)-1,6-naphthyridin-3-yl)phenyl)-4-(2-cyanopropan-2-yl)picolinamide], the GI50 fell in the range of 20 to 100 nM.

For `CNc1cc2ncc(-c3cc(C(=O)Nc4cc(C(C)(C)C#N)ccn4)ccc3C)cc2cn1` [Compound 53, N-(4-(2-cyanopropan-2-yl)pyridin-2-yl)-4-methyl-3-(7-(methylamino)-1,6-naphthyridin-3-yl)benzamide], the GI50 was in the range of 20 to 100 nM.

The compound `CNc1cc2ncc(-c3cc(NC(=N)c4cc(C(F)(F)F)ccn4)ccc3C)cc2cn1` [Compound 61, N-(4-Methyl-3-(7-(methylamino)-1,6-naphthyridin-3-yl)phenyl)-4-(trifluoromethyl)picolinimidamide] gave a GI50 of 100 to 500 nM.

Staying with this assay, now noted: Table A2.
`CNc1cc2ncc(-c3cc(NC(=O)c4cc(C(N(C)C)C(F)(F)F)ccn4)ccc3C)cc2cn1` (stereo not drawn) [Compound 218, 4-(1-(dimethylamino)-2,2,2-trifluoroethyl)-N-(4-methyl-3-(7-(methylamino)-1,6-naphthyridin-3-yl)phenyl)picolinamide] registered a GI50 of 20 to 100 nM.

Regarding `CNc1cc2ncc(-c3cc(NC(=O)c4c[nH]c5c4CC(C)CC5)ccc3C)cc2cn1` (stereo not drawn) [Compound 266, 5-methyl-N-(4-methyl-3-(7-(methylamino)-1,6-naphthyridin-3-yl)phenyl)-4,5,6,7-tetrahydro-1H-indole-3-carboxamide], the GI50 was in the range of 20 to 100 nM.

Regarding `CNc1cc2ncc(-c3cc(NC(=O)c4cccc5c4NC(=O)C5(C)C)ccc3C)cc2cn1` [Compound 215, 3,3-dimethyl-N-(4-methyl-3-(7-(methylamino)-1,6-naphthyridin-3-yl)phenyl)-2-oxoindoline-7-carboxamide], the GI50 was in the range of 20 to 100 nM.

In turn, `CNc1cc2ncc(-c3cc(NC(=O)c4cnc5n4C(C)CCC5)ccc3C)cc2cn1` (stereo not drawn) [Compound 205, 5-methyl-N-(4-methyl-3-(7-(methylamino)-1,6-naphthyridin-3-yl)phenyl)-5,6,7,8-tetrahydroimidazo[1,2-a]pyridine-3-carboxamide] came in with a GI50 of 100 to 500 nM.

In turn, `CNc1ncc2cc(-c3cc(NC(=O)c4ccnc(C(C)(C)C#N)c4)cnc3C)cnc2c1Cl` [Compound 270, N-[5-[8-chloro-7-(methylamino)-1,6-naphthyridin-3-yl]-6-methyl-3-pyridyl]-2-(1-cyano-1-methyl-ethyl)pyridine-4-carboxamide] gave a GI50 not below 500 nM.

On to `CNc1cc2ncc(-c3cc(NC(=O)c4cccc(C(C)(C)C#N)c4)c(F)cc3C)cc2cn1` [Compound 223, 3-(2-cyanopropan-2-yl)-N-(2-fluoro-4-methyl-5-(7-(methylamino)-1,6-naphthyridin-3-yl)phenyl)benzamide], for which the GI50 was in the range of 20 to 100 nM.

`CNc1cc2ncc(-c3cc(NC(=O)c4cnc5n4CC(C)CC5)ccc3C)cc2cn1` (stereo not drawn) [Compound 204, 6-methyl-N-(4-methyl-3-(7-(methylamino)-1,6-naphthyridin-3-yl)phenyl)-5,6,7,8-tetrahydroimidazo[1,2-a]pyridine-3-carboxamide] had a GI50 of less than 20 nM.

For `CNc1cc2ncc(-c3cc(NC(=O)c4c[nH]c5ccc(C)cc45)ccc3C)cc2cn1` [Compound 263, 5-methyl-N-(4-methyl-3-(7-(methylamino)-1,6-naphthyridin-3-yl)phenyl)-1H-indole-3-carboxamide], the GI50 was less than 20 nM.

Compound `CNc1cc2ncc(-c3cc(NC(=O)c4cnc5n4C[C@H](C)CC5)cnc3C)cc2cn1` (single isomer, unassigned) [Compound 259] had a GI50 of 20 to 100 nM.

As to `CNc1cc2ncc(-c3cc(NC(=O)c4cccc5c4CCC5=O)cnc3C)cc2cn1` [Compound 212, N-(6-methyl-5-(7-(methylamino)-1,6-naphthyridin-3-yl)pyridin-3-yl)-1-oxo-2,3-dihydro-1H-indene-4-carboxamide], the GI50 was not below 500 nM.

Regarding `CNc1cc2ncc(-c3cc(NC(=O)c4cnc5n4CC(C(F)(F)F)CC5)cnc3C)cc2cn1` (stereo not drawn) [Compound 243], the GI50 lay in the range of 20 to 100 nM.

The compound `CNc1cc2ncc(-c3cc(NC(=O)c4cccc5c4OC(C)C5)cnc3C)cc2cn1` (stereo not drawn) [Compound 239, 2-methyl-N-(6-methyl-5-(7-(methylamino)-1,6-naphthyridin-3-yl)pyridin-3-yl)-2,3-dihydrobenzofuran-7-carboxamide] yielded a GI50 not below 500 nM.

Compound `CNc1cc2ncc(-c3cc(NC(=O)N(C)c4cc(C(F)F)ccn4)ccc3C)cc2cn1` [Compound 189, 1-(4-(difluoromethyl)pyridin-2-yl)-1-methyl-3-(4-methyl-3-(7-(methylamino)-1,6-naphthyridin-3-yl)phenyl)urea] yielded a GI50 of 100 to 500 nM.

The compound `CNc1cc2ncc(-c3cc(NC(=O)c4cnc5n4CC(C(F)F)CC5)cnc3C)cc2cn1` (stereo not drawn) [Compound 251, 6-(difluoromethyl)-N-(6-methyl-5-(7-(methylamino)-1,6-naphthyridin-3-yl)pyridin-3-yl)-5,6,7,8-tetrahydroimidazo[1,2-a]pyridine-3-carboxamide] registered a GI50 of 100 to 500 nM.

The compound `CNc1cc2ncc(-c3cc(NC(=O)c4noc5c4CCCCC5)cnc3C)cc2cn1` [Compound 245, N-(6-methyl-5-(7-(methylamino)-1,6-naphthyridin-3-yl)pyridin-3-yl)-5,6,7,8-tetrahydro-4H-cyclohepta[d]isoxazole-3-carboxamide] returned a GI50 of 20 to 100 nM.

`CNc1cc2ncc(-c3cc(NC(=O)c4noc5c4CN(C(C)C)CC5)cnc3C)cc2cn1` [Compound 254, 5-isopropyl-N-(6-methyl-5-(7-(methylamino)-1,6-naphthyridin-3-yl)pyridin-3-yl)-4,5,6,7-tetrahydroisoxazolo[4,5-c]pyridine-3-carboxamide] returned a GI50 of 100 to 500 nM.

`CNc1cc2ncc(-c3cc(NC(=O)c4cc([C@@H](O)C(C)(F)F)ccn4)cnc3C)cc2cn1` (single isomer, unassigned) [Compound 248] came in with a 50% growth inhibitory concentration (GI50) of 20 to 100 nM.

`CNc1cc2ncc(-c3cc(NC(=O)c4cnc5n4CC(C(F)(F)F)CC5)ccc3C)cc2cn1` (stereo not drawn) [Compound 220, N-(4-methyl-3-(7-(methylamino)-1,6-naphthyridin-3-yl)phenyl)-6-(trifluoromethyl)-5,6,7,8-tetrahydroimidazo[1,2-a]pyridine-3-carboxamide] yielded a GI50 of 20 to 100 nM.

Compound `CNc1cc2ncc(-c3cc(NC(=O)c4csc5c4CCC(C)C5)cnc3C)cc2cn1` (stereo not drawn) [Compound 235, 6-methyl-N-(6-methyl-5-(7-(methylamino)-1,6-naphthyridin-3-yl)pyridin-3-yl)-4,5,6,7-tetrahydrobenzo[b]thiophene-3-carboxamide] gave a GI50 of 20 to 100 nM.
